For one compound, solubility results are on record in patent US9308176B2, “Less abusable pharmaceutical preparations” (Supernus Pharmaceuticals, Inc, priority 2004, dated 2016).

The data set can be described thus: aqueous solubility at different pH. An excerpt: Moreover, alkaline agents, such as sodium bicarbonate, calcium carbonate, meglumine, and calcium phosphate, can be used to convert salt forms of amine drugs to free base. Generally, free bases have much lower solubility than their salts.

Regarding `COc1ccc2c3c1O[C@H]1C(=O)CC[C@@]4(O)[C@@H](C2)N(C)CC[C@]314.Cl` [oxycodone hydrochloride], the solubility was 182 mg/mL (pH 1.5, simulated gastric fluid) and 6.1 mg/mL (pH 7.4, aqueous buffer).
